Converted amounts (≈) assume the structure as drawn. The source made the active and inactive calls. No cut-off for these calls is given here.
How the values were obtained:
[1] = tested on: Aspergillus flavus; test: Antifungal activity against Aspergillus flavus MTCC 277 after 2 to 3 days by agar well diffusion method; type: functional
[2] = tested on: Fusarium solani; test: Antifungal activity against Fusarium solani MTCC 350 after 2 to 3 days by agar well diffusion method; type: functional
[3] = tested on: Aspergillus niger; test: Antifungal activity against Aspergillus niger MTCC 281 after 2 to 3 days by agar well diffusion method; type: functional
[4] = tested on: Candida albicans; test: Antifungal activity against Candida albicans MTCC 227 after 2 to 3 days by agar well diffusion method; type: functional
[5] = tested on: Salmonella typhimurium; test: Antibacterial activity against Salmonella enterica subsp. enterica serovar Typhimurium MTCC 98 up to 200 ug/ml after 24 hr by agar well diffusion method; type: functional, organism-based
[6] = tested on: Bacillus subtilis; test: Antibacterial activity against Bacillus subtilis MTCC 441 after 24 hr by agar well diffusion method; type: functional; details: MTCC 441, 24 h
[7] = tested on: Staphylococcus aureus; test: Antibacterial activity against Staphylococcus aureus MTCC 96 after 24 hr by agar well diffusion method; type: functional; details: MTCC 96, 24 h
[8] = tested on: THP-1; test: Anti-inflammatory activity in Homo sapiens (human) THP1 cells assessed as inhibition of LPS-induced IL6 production at 10 uM incubated for 30 min prior to LPS-challenge measured after 24 hr by ELISA relative to control; type: functional
[9] = tested on: THP-1; test: Anti-inflammatory activity in Homo sapiens (human) THP1 cells assessed as inhibition of LPS-induced TNFalpha production at 10 uM incubated for 30 min prior to LPS-challenge measured after 24 hr by ELISA relative to control; type: functional
[10] = tested on: THP-1; test: Anti-inflammatory activity in Homo sapiens (human) THP1 cells assessed as inhibition of LPS-induced IL6 production at 1 uM incubated for 30 min prior to LPS-challenge measured after 24 hr by ELISA relative to control; type: functional
[11] = tested on: THP-1; test: Anti-inflammatory activity in Homo sapiens (human) THP1 cells assessed as inhibition of LPS-induced TNFalpha production at 1 uM incubated for 30 min prior to LPS-challenge measured after 24 hr by ELISA relative to control; type: functional
[12] = tested on: Salmonella typhimurium; test: Antibacterial activity against Salmonella enterica subsp. enterica serovar Typhimurium MTCC 98 after 24 hr by agar well diffusion method; type: functional; details: MTCC 98, 24 h
[13] = tested on: Escherichia coli; test: Antibacterial activity against Escherichia coli MTCC 443 after 24 hr by agar well diffusion method; type: functional; details: MTCC 443, 24 h
[14] = tested on: Aspergillus niger; test: Antifungal activity against Aspergillus niger MTCC 281 up to 200 ug/ml after 2 to 3 days by agar well diffusion method; type: functional, organism-based
[15] = tested on: Aspergillus flavus; test: Antifungal activity against Aspergillus flavus MTCC 277 up to 200 ug/ml after 2 to 3 days by agar well diffusion method; type: functional, organism-based
[16] = tested on: Fusarium solani; test: Antifungal activity against Fusarium solani MTCC 350 up to 200 ug/ml after 2 to 3 days by agar well diffusion method; type: functional, organism-based
[17] = tested on: Escherichia coli; test: Antibacterial activity against Escherichia coli MTCC 443 up to 200 ug/ml after 24 hr by agar well diffusion method; type: functional, organism-based
[18] = tested on: Bacillus subtilis; test: Antibacterial activity against Bacillus subtilis MTCC 441 up to 200 ug/ml after 24 hr by agar well diffusion method; type: functional, organism-based
[19] = tested on: Staphylococcus aureus; test: Antibacterial activity against Staphylococcus aureus MTCC 96 up to 200 ug/ml after 24 hr by agar well diffusion method; type: functional, organism-based
[20] = tested on: Candida albicans; test: Antifungal activity against Candida albicans MTCC 227 up to 200 ug/ml after 2 to 3 days by agar well diffusion method; type: functional, organism-based
[21] = tested on: Aspergillus flavus; test: Ratio of miconazole MIC to compound MIC for Aspergillus flavus MTCC 277; type: functional
[22] = tested on: Candida albicans; test: Ratio of miconazole MIC to compound MIC for Candida albicans MTCC 227; type: functional

SMILES	MIC [1]	MIC [2]	MIC [3]	MIC [4]	Activity [5]	MIC [6]	MIC [7]	inhibition at 10 µM [8]	inhibition at 10 µM [9]	MIC [12]	MIC [13]	Activity [17]	Activity [18]	further results
Clc1ccc(COC(Cn2ccnc2)c2ccc(Cl)cc2Cl)c(Cl)c1 (stereo unspecified) [MICONAZOLE]	20 µg/mL (≈ 48.1 µM)	15 µg/mL (≈ 36 µM)	15 µg/mL (≈ 36 µM)	20 µg/mL (≈ 48.1 µM)										
O=C(NCCNc1ccnc2c(F)cc(F)cc12)Nc1cccc(Cl)c1F	30 µg/mL (≈ 76 µM)	60 µg/mL (≈ 152 µM)	75 µg/mL (≈ 190 µM)	40 µg/mL (≈ 101 µM)	inactive	90 µg/mL (≈ 228 µM)	90 µg/mL (≈ 228 µM)	27%	16%					
C[C@@H]1C[C@H]2[C@@H]3CCC4=CC(=O)C=C[C@]4(C)[C@@]3(F)[C@@H](O)C[C@]2(C)[C@@]1(O)C(=O)CO [DEXAMETHASONE]														inhibition at 1 µM [10]: 86%; inhibition at 1 µM [11]: 72%
O=C(O)c1cn(C2CC2)c2cc(N3CCNCC3)c(F)cc2c1=O [CIPROFLOXACIN]						15 µg/mL (≈ 45.3 µM)	20 µg/mL (≈ 60.4 µM)			20 µg/mL (≈ 60.4 µM)	15 µg/mL (≈ 45.3 µM)			
O=C(NCCNc1ccnc2c(F)cc(F)cc12)Nc1ccc(C(F)(F)F)cc1	90 µg/mL (≈ 219 µM)	90 µg/mL (≈ 219 µM)		90 µg/mL (≈ 219 µM)		90 µg/mL (≈ 219 µM)	75 µg/mL (≈ 183 µM)	35%	23%	90 µg/mL (≈ 219 µM)	90 µg/mL (≈ 219 µM)			Activity [14]: inactive
O=c1cc[nH]c2c(F)cc(F)cc12 [6,8-DIFLUOROQUINOLIN-4(1H)-ONE]				90 µg/mL (≈ 497 µM)	inactive			0%	0%			inactive	inactive	Activity [15]: inactive; Activity [16]: inactive; Activity [14]: inactive; Activity [19]: inactive
O=C(NCCNc1ccnc2c(F)cc(F)cc12)Nc1cc(C(F)(F)F)ccc1Cl	20 µg/mL (≈ 45 µM)	20 µg/mL (≈ 45 µM)	15 µg/mL (≈ 33.7 µM)	20 µg/mL (≈ 45 µM)		25 µg/mL (≈ 56.2 µM)	25 µg/mL (≈ 56.2 µM)	80%	61%	15 µg/mL (≈ 33.7 µM)	20 µg/mL (≈ 45 µM)			
Fc1cc(F)c2nccc(Cl)c2c1 [4-CHLORO-6,8-DIFLUOROQUINOLINE]	90 µg/mL (≈ 451 µM)		90 µg/mL (≈ 451 µM)	90 µg/mL (≈ 451 µM)	inactive			0%	0%			inactive	inactive	Activity [16]: inactive; Activity [19]: inactive
Cc1ccc(NC(=O)NCCNc2ccnc3c(F)cc(F)cc23)cc1C	30 µg/mL (≈ 81 µM)	20 µg/mL (≈ 54 µM)	35 µg/mL (≈ 94.5 µM)	25 µg/mL (≈ 67.5 µM)		30 µg/mL (≈ 81 µM)	40 µg/mL (≈ 108 µM)	16%	11%	35 µg/mL (≈ 94.5 µM)	40 µg/mL (≈ 108 µM)			
CC(C)c1ccc(NC(=O)NCCNc2ccnc3c(F)cc(F)cc23)cc1	40 µg/mL (≈ 104 µM)	50 µg/mL (≈ 130 µM)	35 µg/mL (≈ 91 µM)	45 µg/mL (≈ 117 µM)		35 µg/mL (≈ 91 µM)	40 µg/mL (≈ 104 µM)	82%	68%	30 µg/mL (≈ 78 µM)	40 µg/mL (≈ 104 µM)			
NCCNc1ccnc2c(F)cc(F)cc12					inactive			0%	0%			inactive	inactive	Activity [15]: inactive; Activity [16]: inactive; Activity [14]: inactive; Activity [20]: inactive; Activity [19]: inactive
O=C(NCCNc1ccnc2c(F)cc(F)cc12)Nc1ccccc1OC(F)(F)F	80 µg/mL (≈ 188 µM)	90 µg/mL (≈ 211 µM)	80 µg/mL (≈ 188 µM)	80 µg/mL (≈ 188 µM)	inactive			96%	78%			inactive	inactive	Activity [19]: inactive
O=C(NCCNc1ccnc2c(F)cc(F)cc12)Nc1ccc(OC(F)(F)F)cc1				90 µg/mL (≈ 211 µM)	inactive		90 µg/mL (≈ 211 µM)	28%	16%			inactive	inactive	Activity [15]: inactive; Activity [16]: inactive; Activity [14]: inactive
Cc1ccc(F)cc1NC(=O)NCCNc1ccnc2c(F)cc(F)cc12	20 µg/mL (≈ 53.4 µM)	20 µg/mL (≈ 53.4 µM)	30 µg/mL (≈ 80.1 µM)	25 µg/mL (≈ 66.8 µM)		20 µg/mL (≈ 53.4 µM)	25 µg/mL (≈ 66.8 µM)	40%	28%	30 µg/mL (≈ 80.1 µM)	25 µg/mL (≈ 66.8 µM)			
O=C(NCCNc1ccnc2c(F)cc(F)cc12)Nc1ccccc1F	15 µg/mL (≈ 41.6 µM)	20 µg/mL (≈ 55.5 µM)	20 µg/mL (≈ 55.5 µM)	15 µg/mL (≈ 41.6 µM)		20 µg/mL (≈ 55.5 µM)	20 µg/mL (≈ 55.5 µM)	18%	11%	20 µg/mL (≈ 55.5 µM)	15 µg/mL (≈ 41.6 µM)			Ratio [21]: 1.3; Ratio [22]: 1.3
O=C(NCCNc1ccnc2c(F)cc(F)cc12)Nc1ccccc1C(F)(F)F	25 µg/mL (≈ 60.9 µM)	20 µg/mL (≈ 48.7 µM)	10 µg/mL (≈ 24.4 µM)	15 µg/mL (≈ 36.6 µM)		10 µg/mL (≈ 24.4 µM)	15 µg/mL (≈ 36.6 µM)	90%	71%	15 µg/mL (≈ 36.6 µM)	10 µg/mL (≈ 24.4 µM)			

From ChEMBL document CHEMBL3046943, “Synthesis, anti-inflammatory and antimicrobial evaluation of novel N1-(quinolin-4yl)ethane-1,2-diamine phenyl urea derivatives” (2013)
